The record followed here is patent EP4781986A1, “PHARMACEUTICAL COMPOSITION HAVING IMPROVED PHARMACOKINETIC PROPERTIES” (Sichuan Purity Pharmaceutical Co., Ltd., priority 2023, dated 2025).

The nature of data set [1]: stability test in liver microsomes (human). It counts as in vitro ADME. Conditions: Human liver microsomes, 60 min. As to the method: (§1) The stability of the compound of the present invention in liver microsomes of rat, monkey and human was determined. Tested compounds of the present invention were the compounds in Examples 6 and 8 , and a control drug was Zavegepant.
(§2) 3.2 An appropriate amount of liver microsome solution was transferred into a 1 mL 96-deep-well plate, added with a tested drug liquid (or a probe substrate solution), and pre-incubated in a thermal mixer at 37°C for 5 minutes. Two parts of mixed solutions were taken out from the system and added with 1×PBS to replace NADPH, and the mixed solutions were taken out at 0 and 60 minutes respectively, and added with methanol (containing an internal standard) to terminate the reaction. In the remaining mixed system, each well was added with NADPH to start the reaction. In the tested substance group, mixed solutions were taken out from the system at 0, 5, 15, 30, 45 and 60 minutes, and in the control group, mixed solutions were taken out from the system at 0, 30 and 60 minutes, and the mixed solutions were added methanol (containing an internal standard) to terminate the reaction. All samples of the terminated reaction were mixed evenly and centrifuged in a centrifuge at 3800 rpm for 15 minutes, and the supernatant was taken for LC-MS/MS analysis.
(§3) A peak area was determined by an extracted ion chromatogram. A slope value k was determined by linear regression of a remaining percentage of a parent drug relative to a natural logarithm of an incubation time curve. According to the slope, in-vitro half-life periods (t1/2) were respectively calculated, and in-vitro intrinsic clearance rates (CLint, represented by µL/min/mg protein) were calculated. Calculation formulas were as follows: t1/2 = ln2/k = 0.693/k; and CLint = 0.693/t1/2 /liver microsome protein concentration [formula]
(In general: Liver microsomes are a subcellular fraction often used to study metabolism.)

A short description of data set [2]: stability test in liver microsomes (monkey). Type of data set: in vitro ADME. To be noted: Monkey liver microsomes. The method, then:
as §1, §2, §3

Data set [3] relates to Plasma of cynomolgus monkey. The data set can be described thus: plasma protein binding rate test, equilibrium dialysis (monkey). It counts as in vitro ADME. To be noted: 1 µM, 37°C, 6 hours. As to the method:
Protein binding rates of the compound of the present invention in plasma of rat, monkey and human were determined by an equilibrium dialysis method. Tested compounds of the present invention were the compounds in Examples 6 and 8.
3.1 A dry dialysis membrane was rinsed with ultrapure water for 2-3 times, and then soaked in a phosphate buffer for 1 hour for later use. Polytetrafluoroethylene module was soaked in 20% ethanol for 30 minutes, and then surface moisture was dried with dust-free paper for later use. The pretreated dialysis membrane was assembled into a dialysis plate according to the product specification, and one side (receptor compartment) of an osmotic membrane in each dialysis well was added with 100 µL of receptor fluid (100 mM phosphate buffer solution plus 0.002% Tween 80).
3.2 The plasma was put into a centrifuge tube, a working solution of a tested substance was added into the plasma, wherein a final concentration was 1 µM, and the mixture was turned upside down and mixed evenly (this step was carried out in ice bath). 20 µL of drug-containing plasma each was taken, and was respectively transferred to a 96-well sample plate according to two parts in parallel, and stored in a refrigerator at -20°C as a T0 sample.
3.3 Another 100 µL of the above drug-containing plasma was transferred to the other side (sample compartment) of the membrane in the dialysis device according to two parts in parallel, and incubated under vibration at a constant temperature of 37°C for 6 hours. […]
A plasma protein binding rate and a recovery rate of the compound in plasma were calculated by the following formulas: dissociation percentage (%) = CB /CA; [formula] plasma protein binding rate (fb%) = 1−dissociation percentage (%); [formula] recovery rate (%) = (CB+CA)/CT0 [formula] wherein CB was a concentration of the compound in the receptor fluid after equilibrium dialysis; CA was a concentration of the compound in the drug-containing plasma after equilibrium dialysis; and CT0 was an initial concentration of the compound in plasma.
Background: In equilibrium dialysis free small molecules cross a membrane that holds back macromolecules.

The nature of data set [4]: PK properties in monkeys with or without alkyl glycoside, intravenous route and nasal spray. It counts as in vivo, cynomolgus monkey. Conditions: for bioavailability / Tmax / AUC / Cmax / half-life / Vd: cynomolgus monkey, plasma; for bioavailability: read-out: Bioavailability F%; for Tmax: read-out: Time to peak Tmax; for AUC: read-out: Area under curve AUC; for Cmax: read-out: Concentration to peak Cmax; for half-life: read-out: Half-life period t1/2 (converted); for Vd: read-out: Volume of distribution steady-state Vss; for Tmax(DDM 0.2%)/ Tmax(DDM 0%) / onset time (Tmax) shortened by: monkeys, intranasal; for Tmax(DDM 0.2%)/ Tmax(DDM 0%): 0.2% DDM vs without DDM; for onset time (Tmax) shortened by: with vs without alkyl glycoside. As to the method:
Species: cynomolgus monkey, male, 2-5 kg. Source: Ankai Yibo (Zhanjiang) Biotechnology Co., Ltd., Laboratory Animal Production License No.: SCXK (Yue) 2019-0046. Quantity: 3 cynomolgus monkeys were intravenously administered and 3 cynomolgus monkeys were administered by a nasal spray.
2.1 An appropriate amount of drug was accurately weighed and added with 50 mM succinate buffer (diluted with D5W, pH=5-6), and mixed evenly and dissolved fully in an ultrasonic and vortexed mode to obtain a 0.5 mg/mL drug solution for intravenous administration.
2.2 An appropriate amount of drug was accurately weighed and added with a solvent 1: 50 mM succinate buffer (diluted with pure water, pH=5-6), and mixed evenly and dissolved fully in an ultrasonic and vortexed mode to obtain a 20 mg/mL drug solution, which was put into a nasal spraying device for administration by the nasal spray, 100 µL/spray.
2.3 An appropriate amount of drug was accurately weighed and added with a solvent 2: 50 mM succinate buffer (pH=5-6) containing 0.2% dodecyl-β-D-maltoside, and mixed evenly and dissolved fully in an ultrasonic and vortexed mode to obtain a 20 mg/mL drug solution, which was put into a nasal spraying device for administration by the nasal spray, 100 µL/spray.
5 minutes, 10 minutes, 15 minutes, 0.5 hour, 1 hour, 2 hours, 4 hours, 6 hours, 8 hours, 10 hours, 12 hours and 24 hours after administration.
Blood was collected through a saphenous vein or a cephalic vein, about 0.6 mL of each sample was collected, EDTA-K2 was used for anticoagulation, the collected blood sample was placed on ice, and plasma was centrifugally separated within 2 hours (at 2000 g and 2-8°C for 10 minutes). The collected plasma samples were stored in a refrigerator at -80°C before analysis, and the remaining plasma samples after analysis were continuously stored in the refrigerator at -80°C for temporary storage.
A concentration of a specified compound in plasma was determined by LC-MS/MS, and main pharmacokinetic parameters were calculated by a Winnolin 8.3 non-compartmental model. When the pharmacokinetic parameters were calculated, BLQ before Cmax (comprising "No peak") was calculated as 0; and BLQ (comprising "No peak") after Cmax was excluded from the calculation.

The mark [5] stands for this setting: cynomolgus monkeys, IV@0.5 mg/kg.
The mark [6] stands for this setting: male, other: intranasal (nasal spray), 1 mg/kg, cynomolgus monkeys, IN@1 mg/kg (Solvent 1, no DDM).
Where [7] appears, read: male, other: intranasal (nasal spray), 1 mg/kg, cynomolgus monkeys, IN@1 mg/kg (Solvent 2, 0.2% dodecyl-β-D-maltoside).
Where [8] appears, read: male, other: intranasal (nasal spray), cynomolgus monkeys, IN@1 mg/kg (Solvent 2, 0.2% dodecyl-β-D-maltoside).
Where [9] appears, read: male, other: nasal spray (intranasal), cynomolgus monkeys, IN@1 mg/kg (Solvent 1, no DDM).
The mark [10] stands for this setting: male, cynomolgus monkeys, IV@0.5 mg/kg.
[11] abbreviates: 1 mg/kg, cynomolgus monkeys, IN@1 mg/kg (Solvent 1, no DDM).
[12] abbreviates: 1 mg/kg, cynomolgus monkeys, IN@1 mg/kg (Solvent 2, 0.2% dodecyl-β-D-maltoside).
[13] abbreviates: iv, 0.5 mg/kg, cynomolgus monkeys, IV@0.5 mg/kg.

Like-named read-outs stand apart in the source and are kept apart here.

Take `Cc1cc(C[C@@H](NC(=O)N2CCC(c3cc4c([nH]c3=O)SCC4)CC2)C(=O)N2CCN(C3CCN(C)CC3)CC2)cc2cn[nH]c12` [Example 8, (R)-N-(3-(7-methyl-1H-indazole-5-yl)-1-(4-(1-methylpiperidine-4-yl)piperazine-1-yl)-1-oxopropan-2-yl)-4-(6-oxo-2,3,6,7-tetrahydrothieno[2,3-b]pyridine-5-yl)piperidine-1-formamide]: the “% remaining (60 min)” value in data set [1] was found to be 85.8%. The “% remaining (60 min)” value in data set [2] was determined as 61.6%. Besides, the “fb (%)” value in data set [3] is 47.7%. Besides, in data set [4] (setting [5]), the “Apparent clearance CL” value stood at 9.27 mL/min/kg. In data set [4] (setting [6]), the bioavailability (usually the share of a dose that reaches the circulation, judged against a reference dose that is usually intravenous) was 2.5% and the Tmax (as a rule, the time from dosing to the highest level) worked out at 60 min. Besides, in data set [4] (setting [7]), the bioavailability turned out to be 26.4% and the Tmax is roughly 10.2 min. In addition, in data set [4] (setting [8]), the area under the curve (AUC) – broadly, the area under the concentration-time curve, a measure of exposure – was determined as 412 ng·h/mL; the Cmax stood at 401 ng/mL; the half-life is 295 min. Further, in data set [4] (setting [9]), the AUC came out at 46.1 ng·h/mL, the Cmax was found to be 13.4 ng/mL and the half-life is 335 min. For the same molecule, in data set [4] (setting [10]), the AUC is 924 ng·h/mL, the Cmax was determined as 2280 ng/mL, the half-life is 299 min and the Vd amounted to 0.738 L/kg. Further, in data set [4], the “Tmax(DDM 0.2%)/ Tmax(DDM 0%)” value was 16.7% and the “onset time (Tmax) shortened by” value was found to be 83.3%.
Take `Cc1cc(C[C@@H](NC(=O)N2CCC(c3cc4c([nH]c3=O)SCCC4)CC2)C(=O)N2CCN(C3CCN(C)CC3)CC2)cc2cn[nH]c12` [Example 6, (R)-N-(3-(7-methyl-1H-indazole-5-yl)-1-(4-(1-methylpiperidine-4-yl)piperazine-1-yl)-1-oxopropan-2-yl)-4-(7-oxo-3,4,7,8-tetrahydro-2H-thiopyrano[2,3-b]pyridine-6-yl)piperidine-1-formamide]: the “% remaining (60 min)” value in data set [1] was found to be 131%. Moreover, in data set [2], the CLint came out at 0.8 µL/min/mg and the “% remaining (60 min)” value is 96.9%. Besides, the “fb (%)” value in data set [3] stood at 61.3%. In data set [4] (setting [11]), the AUC came out at 43.2 ng·h/mL, the bioavailability was determined as 1.99%, the Cmax was 12.7 ng/mL and the half-life is 540 min. In addition, the Tmax in data set [4] (setting [11]) is 60 min. For the same molecule, in data set [4] (setting [12]), the AUC was 780 ng·h/mL, the bioavailability was found to be 29.8%, the Cmax turned out to be 663 ng/mL and the half-life was 334 min. Besides, the Tmax in data set [4] (setting [12]) was roughly 10.2 min. Besides, in data set [4] (setting [13]), the AUC is 1140 ng·h/mL, the Cmax was determined as 3200 ng/mL and the half-life was 299 min. Further, the Vd in data set [4] (setting [5]) came to 0.652 L/kg. Further, in data set [4], the “Tmax(DDM 0.2%)/ Tmax(DDM 0%)” value came to 16.7% and the “onset time (Tmax) shortened by” value worked out at 83.3%.
